The values that follow come from ChEMBL document CHEMBL1128866, “Isophthalic acid derivatives: amino acid surrogates for the inhibition of HIV-1 protease” (Bioorg Med Chem Lett, 1995).

The test system of one series is CCRF-CEM. The experiment in a line: Antiviral activity in HIV-infected CEM cells using whole cell assay. It counts as functional, cell-based. Conditions: Homo sapiens.
Series [1] deals with Human immunodeficiency virus type 1 protease (Human immunodeficiency virus 1, UniProt Q72874). The experiment in a line: Inhibitory activity against human immunodeficiency virus protease (HIVP) using protease inhibition assay.
Series [2] can be described thus: Peak oral plasma concentration was determined in rats by oral administration. Further details: route oral. The conditions noted are these: rat. It counts as ADME, organism-based.

With `CC(C)(C)NC(=O)[C@@H]1C[C@@H]2CCCC[C@@H]2CN1C[C@@H](O)[C@H](Cc1ccccc1)NC(=O)[C@H](CC(N)=O)NC(=O)c1ccc2ccccc2n1`, the IC50 in the series with CCRF-CEM was found to be 0.002 µM.

With `CC(C)(C)NC(=O)c1ccccc1C[C@@H](O)[C@H](Cc1ccccc1)NC(=O)c1cccc(C(=O)N2CCc3ccccc3C2)c1`, the IC50 in series [1] turned out to be 0.05 µM.

The molecule `Cc1ccc(C(=O)N(C)Cc2ccccn2)cc1C(=O)N[C@@H](Cc1ccccc1)[C@H](O)CN1C[C@H]2CCCC[C@H]2C[C@H]1C(=O)NC(C)(C)C` yielded a Cmax in series [2] of 4.4 µM. For the same molecule, the concentration for half-maximal inhibition (IC50) was determined as 0.077 µM with CCRF-CEM and 0.0086 µM in series [1].

On to `Cc1cc(C(=O)N[C@@H](Cc2ccccc2)[C@H](O)Cc2ccccc2C(=O)NC(C)(C)C)cc(C(=O)N2CCc3ccccc3C2)c1`, for which 0.5 µM corresponded to half-maximal inhibition in series [1] (IC50).

Take `Cc1ccc(C(=O)N[C@@H](Cc2ccccc2)[C@H](O)Cc2ccccc2C(=O)NC(C)(C)C)cc1C(=O)N1CCc2ccccc2C1`: the IC50 in series [1] worked out at 0.67 µM.

`CC(C)(C)NC(=O)c1ccccc1C[C@@H](O)[C@H](Cc1ccccc1)NC(=O)[C@H](CC(N)=O)NC(=O)c1ccc2ccccc2n1`: the Cmax in series [2] was below 0.1 µM. This molecule came in with an IC50 in the series with CCRF-CEM of 0.027 µM.

The molecule `Cc1ccc(C(=O)N2CCc3ccccc3C2)cc1C(=O)N[C@@H](Cc1ccccc1)[C@H](O)Cc1ccccc1C(=O)NC(C)(C)C` yielded an IC50 in series [1] of 0.0061 µM.

`Cc1ccc(C(=O)N2CCc3ccccc3C2)cc1C(=O)N[C@@H](Cc1ccccc1)[C@H](O)CN1C[C@H]2CCCC[C@H]2C[C@H]1C(=O)NC(C)(C)C`: the Cmax in series [2] is below 0.1 µM. Moreover, the figures for the IC50 (in the series with CCRF-CEM; in series [1]) were 1.4 µM and 0.0138 µM, respectively.

A word on the IC50: it is the concentration needed to halve the response being measured. One may read the Cmax as the maximum level reached in the sampled fluid or tissue.
